Values of other authors as cited in publication PMC7518156 (PeerJ, 2020).
Like-named read-outs stand apart in the source and are kept apart here.

Details: ref Scheffler et al., 2011, cited from earlier work; for half-life (t1/2): Lu et al., 2006
[1] = oral administration, cancer patients
[2] = oral administration, healthy subjects

SMILES | half-life (t1/2) (cancer patients) | half-life (t1/2) (healthy patients) | Tmax [1] | time to reach maximum concentration (tmax) [2] | F [1] | mean bioavailability (F) [2]
COc1cc2ncnc(Nc3ccc(F)c(Cl)c3)c2cc1OCCCN1CCOCC1 [GEF, Gefitinib] | ~48 h | about 41 h | about 7 h | 3 h | – | –
C#Cc1cccc(Nc2ncnc3cc(OCCOC)c(OCCOC)cc23)c1 [ERL, Erlotinib] | up to 40.9 h | about 24.4 h | 3 h | 1.4 h | 76% | 59%
